US20220299532A1, “CORRECTING PROTEIN MISFOLDING IN DIABETES” (Sanford Burnham Prebys Medical Discovery Institute, priority 2019, published 2022)
Residues, ends and D or L forms follow the SMILES beside them. *: point of attachment. Cbz = O=C(OCc1ccccc1)*

Legend:
[1] = test system: murine embryonic fibroblasts (MEFs); assay: Human proinsulin delivered by adenovirus to murine embryonic fibroblasts, non-reducing SDS-PAGE; format: cell-based, mouse; details: MEFs infected with Ad-hProins, increasing concentrations of DTT
Method: Generation and culture of primary mouse embryonic fibroblast (MEF): WT C57BL/6 d14 embryos were isolated under sterile conditions and placed in 100 mm cell culture dish containing PBS. Placental and other maternal tissues were removed and the embryos were washed three times with PBS. Heads and visceral organs were removed. The heads were used for genotyping. Embryos were finely minced with a sterile razor blade and treated with 1 ml of 0.25% trypsin/EDTA (Corning) for 40 min at 37° C. DMEM medium (Corning) supplemented with 10% FBS, 1% penicillin/streptomycin, 100 μg/ml primocin and 1 mM sodium pyruvate was added to quench trypsin activity. Tissue homogenate was subsequently disaggregated by repeated pipetting, and further centrifuged to collect the fibroblast cell pallet. Cells were plated in 100 mm culture dish in DMEM medium at 37° C. in a cell culture incubator under 5% CO2. To prevent mycoplasma, bacterial, and fungal contamination, primary MEFs were cultured in medium containing 100 μg/ml primocin (InvivoGen) and used for experiments prior to passage #5.
To study the impact of PDIA1 in the absence of C peptide processing in a more manipulatable system, the inventors analyzed human proinsulin expression delivered by adenovirus to murine embryonic fibroblasts (MEFs) that were co-infected with WT PDIA1 or PDIA1 with 4 Cys to Ser mutations in the two vicinal catalytic PDI sites. […]

mouse pancreatic islets = assay: Proinsulin disulfide-linked / HMW complexes in murine islets, SDS-PAGE immunoblot (CCI-17); format: cell-based; details: islets of WT male mice on regular diet, increasing concentrations of DTT in culture
Method: Mouse pancreatic islet isolation: Mice were euthanized by CO2 narcosis as per an approved institutional animal protocol. The pancreas was rapidly excised, minced in ice-cold PBS, and digested in 4 mL of Collagenase P (Roche) 1.5 mg/mL in Hank's Balanced Salt Solution containing calcium and magnesium, in a shaking water bath for 30 min at 37° C. The digestion was terminated in 40 mL ice-cold PBS (—Ca/—Mg) and the digested tissue washed twice in this buffer. The sedimented tissue digest was then overlaid with 3 mL Histopaque-1077 and further overlayed with 6 mL ice cold PBS (—Ca/—Mg) before centrifugation (3000 rpm for 20 min at 10° C. with no brake) and transfer of the midlayer of the Histopaque gradient to a 15 ml tube for two further washes in ice-cold PBS. Finally, the sedimented tissue was transferred to a petri dish in ice-cold RPMI-1640 buffer and islets hand-picked to purity. In experiments involving drug or compound treatment, the islets were finally recovered overnight in RPMI-1640 supplemented with 10% fetal bovine serum (FBS), 10 mM HEPES pH 7.35, 1 mM sodium pyruvate and 0.05 mM beta-mercaptoethanol, in a humidified 5% CO2 incubator at 37° C. For some experiments, islets were snap frozen in liquid nitrogen and stored frozen prior to analysis.
(§1) Lysis of cells or islets for SDS-PAGE and electrotransfer: After removal of media, cells were washed once with ice-cold PBS and lysed in RIPA buffer (10 mM Tris pH 7.4, 150 mM NaCl, 0.1% SDS, 1% NP40, 2 mM EDTA) plus protease inhibitor/phosphatase inhibitor cocktail (Sigma-Aldrich) or directly in Laemmli gel sample buffer. Lysates in RIPA buffer were immediately spun at 10,000 rpm for 10 min at 4° C. and the supernatants analyzed further or stored at −80° C. Islets that had been quick frozen were placed on ice and RIPA buffer containing protease inhibitor cocktail and phosphatase inhibitor was added. Lysis was carried out by gently pipetting or by syringe through a 30G needle. Total protein concentration in the lysate was determined by BCA or Bramhall assay, and 5-10 μg of samples prepared in SDS sample were resolved by SDS-PAGE in 4-12% Bis-Tris NuPAGE gels (Invitrogen) at 200 V for 30 min. Nonreducing gels were incubated in a solution containing 20 mM dithiothreitol (DTT) for 10 min at room temperature prior to electrotransfer.
(§2) Immunoblotting: Transfer membranes were rinsed once in TBST (15 mM Tris, 150 mM NaCl, 0.1% Tween-20), blocked using TST plus 5% BSA for 1 h at room temperature, and then washed four times (5 min each) in TBST. Primary antibody and secondary antibodies were diluted in TBST and each of […] incubations was 1 h at room temperature followed by 4 washes in TBST. On occasion, primary antibodies were incubated overnight at 4° C. Secondary antibodies were all HRP-conjugates. Development of immunoblots used enhanced chemiluminescence (Immobilon, Millipore, or SuperSignal West Pico PLUS, Thermo Fisher Scientific) with images captured using a Fotodyne gel imager.
Islet Isolation: Islets were isolated by collagenase P (Roche) perfusion as described following by histopaque-1077 (Sigma-Aldrich, Inc. St. Louis) gradient purification. Islets were handpicked and studied directly or after overnight culture in RPMI 1640 medium (Corning 10-040-CV) supplemented with 10% FBS, 1% penicillin/streptomycin, 100 μg/m1 primocin, 10mM Hepes, and 1mM sodium pyruvate.
Islet Western Blotting: Isolated islets were lysed in RIPA buffer (10 mM Tris pH 7.4, 150 mM NaCl, 0.1% SDS, 1% NP-40, 2mM EDTA) with protease and phosphatase inhibitors (Fisher Scientific) on ice for 10 min and lysates were collected after centrifugation at 4° C. for 10 min at 12000 g. Samples were prepared in Laemmli sample buffer without (non-reducing) or with (reducing) 5% β-mercaptoethanol. After boiling for 5 min, samples were analyzed by SDS-PAGE (4-12% Bis-Tris gel, (Bio-Rad Laboratories, Inc.)) and transferred to nitrocellulose membranes (Bio-Rad Laboratories, Inc.). […]

293T cells = assay: Disulfide-linked complexes of recombinant human proinsulin in 293T cells, nonreducing SDS-PAGE immunoblot (mAb 20G11); format: cell-based; details: overnight PERK inhibitor
Method: (§3) Cell and islet culture: Rat pancreatic beta cell lines INS1E and INS-832/13 were cultured in RPMI-1640 medium supplemented with 10% FBS, 10 mM HEPES pH 7.35, 1 mM sodium pyruvate, penicillin/streptomycin and 0.05 mM beta-mercaptoethanol. HEK293T human cells lines were cultured in DMEM supplemented with 10% FBS and penicillin/streptomycin.
(§4) Transfection of cells: 293T cells, INS1E cells, and INS-832/13 cells at 70-80% confluency were transiently transfected using Lipofectamine 2000 (ThermoFisher) as per the manufacturer's instructions. A medium change was performed 5 h post-transfection and the cells were lysed at 36 or 48 h.
as §1, with “Islets that had been quick frozen were placed on ice and RIPA buffer containing protease inhibitor cocktail and phosphatase inhibitor was added. Lysis was carried out by gently pipetting or by syringe through a 30G needle.” left out, “Nonreducing gels were incubated in a solution containing 20 mM dithiothreitol (DTT) for 10 min at room temperature prior to electrotransfer.” left out

human islets = assay: Proinsulin disulfide-linked complexes in human islets, SDS-PAGE immunoblot (mAb 20G11); format: cell-based; details: overnight PERK inhibitor
Method: Human pancreatic islets: Human islets were obtained either from Prodo Labs, or from the NIDDK-funded Integrated Islet Distribution Program (IIDP; NIH UC4-DK098085) and maintained in a humidified 5% CO2 incubator at 37° C. Human islets were cultured ex vivo for up to 96 h in Prodo PIM(R) islet19 specific tissue culture medium supplemented with 10% FBS and Prodo PIM(G) glutamine/glutathione supplement, plus penicillin/streptomycin.
as §1, with “Nonreducing gels were incubated in a solution containing 20 mM dithiothreitol (DTT) for 10 min at room temperature prior to electrotransfer.” left out

INS1E cells [2] = assay: Proinsulin disulfide-linked complexes in INS1E cells, nonreducing/reducing SDS-PAGE and immunoblotting (mAb CCI-17); format: cell-based, rat
Method: HEK293T human cells lines were cultured in DMEM supplemented with 10% FBS and penicillin/streptomycin.
as §1, with “Islets that had been quick frozen were placed on ice and RIPA buffer containing protease inhibitor cocktail and phosphatase inhibitor was added.” left out, “Total protein concentration in the lysate was determined by BCA or Bramhall assay, and 5-10 μg of samples prepared in SDS sample were resolved by SDS-PAGE in 4-12% Bis-Tris NuPAGE gels (Invitrogen) at 200 V for 30 min.” left out
The lane was then laid horizontally on top of a 10% SDS-polyacrylamide resolving gel and sealed in place in stacking gel. A single-tooth comb was introduced at one end of the stacking gel to introduce a one-dimensional reduced sample of proinsulin containing cell lysate (which runs as proinsulin monomer). The gel was run at 200 V for 45 mins in Tris-Glycine buffer pH 8.8 with electrotransfer as described above.
as §2

INS1E cells [3] = assay: Intracellular proinsulin distribution in INS1E cells, indirect immunofluorescence; format: cell-based, rat; details: overnight PERK inhibitor, anti-proinsulin GS-9A8 and anti-calnexin
Method: Immunohistochemistry/immunocytochemistry: Pancreatic paraffin sections were de-paraffinized with Citrisolv (Fisher Scientific) for 5 min at room temperature, re-hydrated in a series of 8 min ethanol incubations: 100%, 95%, 70%, and distilled water. Antigen retrieval was carried out using Retrieve-ALL 1 Universal pH 8 (BioLegend) and slides were heated in a microwave, cooled for 30 min at room temperature, and incubated once with PBS for 5 min. Blocking was performed in 150 μL blocking buffer (3% BSA prepared in TBS and 0.2% Triton X-100) per section for 2 h at room temperature. Blocking buffer was removed and 150 μL per section of primary antibody appropriately diluted in TBS plus 3% BSA and 0.2% Tween-20 was incubated overnight at 4° C. The primary antibody was removed and the slide washed twice with TBS/0.1% Tween-20. Then, 150 μL secondary antibody (1:500 dilution, prepared in antibody buffer) per section was incubated for 1 h at room temperature. Slides were washed thrice with TBS/0.1% Tween-20, mounted with a drop of prolong gold anti-fade reagent with DAPI (ThermoFisher) and a cover slip affixed. For immunocytochemistry, INS1E cells were grown in an 8-well Millicell® EZ SLIDE (Millipore-SIGMA). Cells were allowed to reach 60-80% confluency before addition of PERK inhibitor (PERKi) or vehicle. […]

INS-832/13 β-cell line = assay: Detection of myc-tagged two-cysteine proinsulin mutants in INS-832/13 cells, nonreducing SDS-PAGE immunoblot; format: cell-based, rat; details: MG132 10 μg/mL for 7 h
Method: as §3, §4
as §1, with “Islets that had been quick frozen were placed on ice and RIPA buffer containing protease inhibitor cocktail and phosphatase inhibitor was added. Lysis was carried out by gently pipetting or by syringe through a 30G needle.” left out, “Nonreducing gels were incubated in a solution containing 20 mM dithiothreitol (DTT) for 10 min at room temperature prior to electrotransfer.” left out

## O[C@H](CS)[C@H](O)CS (racemic) [dithiothreitol]
[1]
  reduced proinsulin: increased the amount of reduced proinsulin
Mouse pancreatic islets
  proinsulin monomer and dimer: increasing amounts of the proinsulin monomer and residual disulfide-linked dimer

## Cc1cccc(CC(=O)N2CCc3c2ccc(-c2cn(C)c4ncnc(N)c24)c3F)n1 [PERK inhibitor, GSK2656157]
293T cells
  disulfide-linked proinsulin dimers and higher-order complexes of recombinant human proinsulin: accumulated to a dramatically higher level
Human islets; nonreducing SDS-PAGE
  higher order disulfide-linked proinsulin complexes: further increase in higher order disulfide-linked complexes
Human islets; reducing SDS-PAGE
  total islet proinsulin: increase in total islet proinsulin
INS1E cells [2]; INS1E cells treated with PERK inhibitor, 2D nonreducing/reducing SDS-PAGE
  disulfide-linked proinsulin complexes as share of all recovered proinsulin: 87%
INS1E cells [2]; INS1E cells, PERK inhibitor for last 0, 5, 10 or 20 h
  intracellular proinsulin in disulfide-linked complexes with increasing time of exposure: the majority of intracellular proinsulin accumulated in disulfide-linked complexes
INS1E cells [2]; INS1E cells, PERK inhibitor overnight (GSK2656157, 2 μM) vs vehicle DMSO
  intracellular accumulation of proinsulin: dramatically increased
INS1E cells [2]; INS1E cells, PERK inhibitor up to 20 h
  insulin content: decreased insulin content
INS1E cells [2]; INS1E cells, PERK inhibitor up to 20 h, media
  proinsulin secretion: decreased proinsulin secretion
INS1E cells [2]; INS1E cells, overnight PERK inhibitor, nonreducing SDS-PAGE of media
  secretion of proinsulin to the medium: not increased
INS1E cells [3]
  intracellular proinsulin distribution: shifted its distribution to the classic impacted-ER phenotype

## CC(C)C[C@@H](C=O)NC(=O)[C@H](CC(C)C)NC(=O)[C@H](CC(C)C)NC(=O)OCc1ccccc1 [MG132] (Cbz-Leu-Leu-Leu-aldehyde)
INS-832/13 β-cell line
  detection of myc-tagged proinsulin mutants (keep-B7/A7, keep-A6/A11, keep-B19/A20): myc-tagged proinsulin monomers were detected in all cases
